Experimental data published in patent publication US7517884B2 (Kalypsys Inc., priority 1998, dated 2009).

Experiments:
Assay type in all cases: cell-based, murine and human
Settings in all cases: GAL4-PPAR LBD chimera
[1] = molecular target: T1, PPAR-alpha (UniProt Q07869); assay: PPAR-alpha transactivation assay (GAL4 chimera, luciferase reporter) in CV-1 cells
T1 sequence (Q07869 1-468): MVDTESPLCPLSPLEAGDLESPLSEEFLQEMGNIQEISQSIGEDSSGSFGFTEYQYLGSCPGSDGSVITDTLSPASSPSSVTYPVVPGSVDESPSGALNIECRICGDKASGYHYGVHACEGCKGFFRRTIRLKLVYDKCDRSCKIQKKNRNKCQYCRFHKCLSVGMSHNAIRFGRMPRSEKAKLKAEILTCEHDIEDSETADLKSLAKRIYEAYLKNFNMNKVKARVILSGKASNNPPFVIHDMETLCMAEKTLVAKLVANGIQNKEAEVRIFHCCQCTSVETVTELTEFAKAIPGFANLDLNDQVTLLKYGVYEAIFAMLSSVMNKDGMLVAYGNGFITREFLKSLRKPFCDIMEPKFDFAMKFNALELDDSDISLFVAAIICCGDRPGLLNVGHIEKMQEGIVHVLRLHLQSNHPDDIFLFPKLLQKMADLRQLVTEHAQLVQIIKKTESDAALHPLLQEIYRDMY
Method in brief: (§1)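 CV-1 cells transiently transfected with murine or human PPAR-alpha, -gamma or -delta ligand-binding domain fused to GAL4 DNA-binding domain plus a GAL4-site luciferase reporter. After replating in phenol-red-free DME with 5% delipidated calf serum, cells were exposed to compound 20-24 h; luciferase read-out gave EC50.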

[2] = molecular target: T2, PPAR-delta (UniProt Q03181); assay: PPAR-delta transactivation assay (GAL4 chimera, luciferase reporter) in CV-1 cells
T2 sequence (Q03181 1-441): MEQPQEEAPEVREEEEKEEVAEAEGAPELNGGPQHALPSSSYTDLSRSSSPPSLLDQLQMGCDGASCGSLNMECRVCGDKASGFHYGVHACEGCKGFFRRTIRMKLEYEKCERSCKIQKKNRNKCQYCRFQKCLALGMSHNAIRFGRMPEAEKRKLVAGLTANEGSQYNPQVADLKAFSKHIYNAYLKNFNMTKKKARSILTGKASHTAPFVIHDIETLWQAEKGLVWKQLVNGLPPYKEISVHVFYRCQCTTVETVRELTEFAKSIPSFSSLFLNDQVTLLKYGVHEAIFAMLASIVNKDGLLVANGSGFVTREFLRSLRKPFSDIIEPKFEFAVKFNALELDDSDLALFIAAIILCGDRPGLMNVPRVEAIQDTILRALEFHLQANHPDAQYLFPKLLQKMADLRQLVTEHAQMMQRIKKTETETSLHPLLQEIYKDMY
Method in brief: as §1

[3] = molecular target: T3, PPAR-gamma (UniProt P37231); assay: PPAR-gamma transactivation assay (GAL4 chimera, luciferase reporter) in CV-1 cells
T3 sequence (P37231 1-505): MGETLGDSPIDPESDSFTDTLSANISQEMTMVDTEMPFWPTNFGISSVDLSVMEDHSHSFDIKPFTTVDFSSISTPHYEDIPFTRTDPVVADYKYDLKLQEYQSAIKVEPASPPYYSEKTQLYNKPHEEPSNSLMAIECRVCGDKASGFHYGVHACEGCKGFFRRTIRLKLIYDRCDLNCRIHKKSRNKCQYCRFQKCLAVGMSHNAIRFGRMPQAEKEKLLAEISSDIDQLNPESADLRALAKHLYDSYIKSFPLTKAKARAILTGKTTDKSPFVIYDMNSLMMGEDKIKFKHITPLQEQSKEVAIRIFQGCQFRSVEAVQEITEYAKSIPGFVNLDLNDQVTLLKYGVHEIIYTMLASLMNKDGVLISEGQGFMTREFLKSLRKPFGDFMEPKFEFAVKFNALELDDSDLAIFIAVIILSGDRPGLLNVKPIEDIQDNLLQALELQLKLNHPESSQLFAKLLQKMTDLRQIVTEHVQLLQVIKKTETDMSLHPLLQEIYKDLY
Method in brief: as §1

SMILES	EC50 [1]	EC50 [2]	EC50 [3]
C[C@@H]1CN(c2cc(F)cc(F)c2Cl)C[C@H](C)N1S(=O)(=O)c1cccc2c1CC(C(=O)O)C2 (stereo partly drawn) [Example 123, 4-(4-(2-Chloro-3,5-difluorophenyl)-cis-2,6-dimethylpiperazin-1-ylsulfonyl)-2,3-dihydro-1H-indene-2-carboxylic acid]	> 100 µM	5 to 100 µM	> 100 µM
C[C@@H]1CN(c2cc(F)c(Cl)c(F)c2)C[C@H](C)N1S(=O)(=O)c1cccc2c1CC(C(=O)O)C2 (stereo partly drawn) [Example 124, 4-(4-(4-Chloro-3,5-difluorophenyl)-cis-2,6-dimethylpiperazin-1-ylsulfonyl)-2,3-dihydro-1H-indene-2-carboxylic acid]	> 100 µM	< 5 µM	> 100 µM
O=C(O)C1Cc2cccc(S(=O)(=O)N3C4CSCC3CN(c3ccc(OC(F)(F)F)cc3)C4)c2C1 (stereo not drawn) [Example 125, 4-(7-(4-(Trifluoromethoxy)phenyl)-3-thia-7,9-diazabicyclo|3.3.1|nonan-9-ylsulfonyl)-2,3-dihydro-1H-indene-2-carboxylic acid]	> 100 µM	< 5 µM	> 100 µM
C[C@@H]1CN(c2ccc(Cl)cc2)C[C@H](C)N1S(=O)(=O)c1cccc2c1CC(C(=O)O)C2 (stereo partly drawn) [Example 126, 4-[4-(4-Chlorophenyl)-cis-2,6-dimethylpiperazin-1-ylsulfonyl]-2,3-dihydro-1H-indene-2-carboxylic acid]	> 100 µM	< 5 µM	> 100 µM
C[C@@H]1CN(c2ccc(Cl)c(OC(F)(F)F)c2)C[C@H](C)N1S(=O)(=O)c1cccc2c1CC(C(=O)O)C2 (stereo partly drawn) [Example 131, 4-|4-(4-Chloro-3-trifluoromethoxyphenyl)-cis-2,6-dimethylpiperazine-1-ylsulfonyl|-2,3-dihydro-1H-indene-2-carboxylic acid]	> 100 µM	< 5 µM	> 100 µM
C[C@@H]1CN(c2ccc(Cl)c(F)c2)C[C@H](C)N1S(=O)(=O)c1cccc2c1CC(C(=O)O)C2 (stereo partly drawn) [Example 132, 4-|4-(4-Chloro-3-fluorophenyl)-cis-2,6-dimethylpiperazin-1-ylsulfonyl|-2,3-dihydro-1H-indene-2-carboxylic acid]	> 100 µM	< 5 µM	> 100 µM
COc1cc(N2C[C@@H](C)N(S(=O)(=O)c3cccc4c3CC(C(=O)O)C4)[C@@H](C)C2)ccc1Cl (stereo partly drawn) [Example 133, 4-|4-(4-Chloro-3-methoxyphenyl)-cis-2,6-dimethylpiperazine-1-ylsulfonyl|-2,3-dihydro-1H-indene-2-carboxylic acid]	> 100 µM	< 5 µM	> 100 µM
C[C@@H]1CN(c2ccc(Cl)c(C(F)(F)F)c2)C[C@H](C)N1S(=O)(=O)c1cccc2c1CC(C(=O)O)C2 (stereo partly drawn) [Example 134]	> 100 µM	< 5 µM	> 100 µM
Cc1cc(N2C[C@@H](C)N(S(=O)(=O)c3cccc4c3CC(C(=O)O)C4)[C@@H](C)C2)ccc1Cl (stereo partly drawn) [Example 135, 4-|4-(4-Chloro-3-methylphenyl)-cis-2,6-dimethylpiperazin-1-ylsulfonyl|-2,3-dihydro-1H-indene-2-carboxylic acid]	> 100 µM	< 5 µM	> 100 µM
CCc1ccc(N2C[C@@H](C)N(S(=O)(=O)c3cccc4c3CC(C(=O)O)C4)[C@@H](C)C2)cc1 (stereo partly drawn) [Example 136, 4-|4-(4-Ethylphenyl)-cis-2,6-dimethylpiperazin-1-ylsulfonyl|-2,3-dihydro-1H-indene-2-carboxylic acid]	> 100 µM	< 5 µM	> 100 µM
Cc1ccc(N2C[C@@H](C)N(S(=O)(=O)c3cccc4c3CC(C(=O)O)C4)[C@@H](C)C2)cc1C (stereo partly drawn) [Example 137, 4-|4-(3,4-Dimethylphenyl)-cis-2,6-dimethylpiperazin-1-ylsulfonyl|-2,3-dihydro-1H-indene-2-carboxylic acid]	> 100 µM	< 5 µM	> 100 µM

Second part, the compound after the results:

EC50 [1]	EC50 [2]	EC50 [3]	SMILES
> 100 µM	< 5 µM	5 to 100 µM	C[C@@H]1CN(Cc2ccc(Cl)c(Cl)c2)C[C@H](C)N1S(=O)(=O)c1cccc2c1CC(C(=O)O)C2 (stereo partly drawn) [Example 111]
5 to 100 µM	5 to 100 µM	5 to 100 µM	O=C(O)C1Cc2cccc(S(=O)(=O)N3CCN(c4cccc(OCC(F)(F)F)c4)CC3)c2C1 (stereo not drawn) [Example 112, 4-{4-[3-(2,2,2-trifluoro-ethoxy)-phenyl]-piperazine-1-sulfonyl}-indan-2-carboxylic acid]
5 to 100 µM	< 5 µM	5 to 100 µM	O=C(O)C1Cc2cccc(S(=O)(=O)N3CCN(c4cccc(OC(F)(F)F)c4)CC3)c2C1 (stereo not drawn) [Example 113, 4-[4-(3-Trifluomethoxy-phenyl)-piperazine-1-sulfonyl]-indan-2-carboxylic acid]
5 to 100 µM	5 to 100 µM	5 to 100 µM	O=C(O)C1Cc2cccc(S(=O)(=O)N3CCN(c4ccc(OCC(F)(F)F)cc4)CC3)c2C1 (stereo not drawn) [Example 114, 4-{4-[4-(2,2,2-Trifluoro-ethoxy)-phenyl]-piperazine-1-sulfonyl}-indan-2-carboxylic acid]
> 100 µM	< 5 µM	5 to 100 µM	C[C@@H]1CN(c2cccc(OC(F)(F)F)c2)C[C@H](C)N1S(=O)(=O)c1cccc2c1CC(C(=O)O)C2 (stereo partly drawn) [Example 115, 4-[cis-2,6-dimethyl-4-(3-trifluoromethoxyphenyl)piperazin-1-ylsulfonyl]-2,3-dihydro-1H-indene-2-carboxylic acid]
5 to 100 µM	< 5 µM	5 to 100 µM	C[C@H]1CN(S(=O)(=O)c2cccc3c2CC(C(=O)O)C3)[C@@H](C)CN1c1ccc(C(F)(F)F)cn1 (stereo partly drawn) [Example 116, 4-[2S,5S-dimethyl-4-(5-trifluoromethyl-pyridin-2-yl)-piperazine-1-sulfonyl]-indan-2(R,S)-carboxylic acid]
5 to 100 µM	< 5 µM	5 to 100 µM	O=C(O)C1Cc2cccc(S(=O)(=O)N3C4CCCC3CN(c3ccc(OC(F)(F)F)cc3)C4)c2C1 (stereo not drawn) [Example 117, 4-[3-(4-trifluoromethoxy-phenyl)-3,9-diaza-bicyclo[3.3.1]nonane-9-sulfonyl]-indan-2-carboxylic acid]
> 100 µM	< 5 µM	> 100 µM	C[C@@H]1CN(c2ccc(Cl)c(Br)c2)C[C@H](C)N1S(=O)(=O)c1cccc2c1CC(C(=O)O)C2 (stereo partly drawn) [Example 120, 4-(4-(3-bromo-4-chlorophenyl)-cis-2,6-dimethylpiperazin-1-ylsulfonyl)-2,3-dihydro-1H-indene-2-carboxylic acid]
5 to 100 µM	< 5 µM	> 100 µM	C[C@@H]1CN(c2cc(F)c(C(F)(F)F)c(F)c2)C[C@H](C)N1S(=O)(=O)c1cccc2c1CC(C(=O)O)C2 (stereo partly drawn) [Example 121, 4-(4-(3,5-Difluoro-4-(trifluoromethyl)phenyl)-cis-2,6-dimethylsulfonyl)-2,3-dihydro-1H-indene-2-carboxylic acid]
> 100 µM	< 5 µM	> 100 µM	C[C@@H]1CN(c2ccc(C(F)(F)F)c(Br)c2)C[C@H](C)N1S(=O)(=O)c1cccc2c1CC(C(=O)O)C2 (stereo partly drawn) [Example 122, 4-(4-(3-Bromo-4-(trifluoromethyl)phenyl)-cis-2,6-dimethylpiperazin-1-ylsulfonyl)-2,3-dihydro-1H-indene-2-carboxylic acid]
